Results on nine compounds are retold here after ChEMBL document CHEMBL5543108, “Structure-based design and synthesis of BML284 derivatives: A novel class of colchicine-site noncovalent tubulin degradation agents” (Eur J Med Chem, 2024).

Each structure is given as a SMILES string. Where a name gives a salt, the structure may show the parent alone. Active and inactive are the calls of the source. The rule behind the calls is not given here.

One experiment concerns K562. The experiment is described as follows: Antiproliferative activity against human K562 cells assessed as reduction in cell viability measured after 72 hrs. Type of experiment: functional, cell-based. The conditions noted are these: K562, 72 h.
Another experiment has as its system MOLM-13. The experiment is described as follows: Antiproliferative activity against human MOLM-13 cells assessed as reduction in cell viability measured after 72 hrs. Format: functional, cell-based. The conditions noted are these: MOLM-13, 72 h.
The subject of the next experiment is HCT-116. The experiment is described as follows: cells. The conditions noted are these: Homo sapiens, HCT-116, 72 h.
Experiment [1] has as its target T1, Tubulin (Homo sapiens) (UniProt P68371+Q9H4B7+P0DPH7+P68366+Q13509+Q71U36+P04350+Q3ZCM7+P07437+P68363+Q9BQE3+Q6PEY2+Q13885+Q9BVA1+Q9BUF5). In words: Induction of tubulin degradation in human HeLa cells at 50 uM measured after 24 hrs by immunoblot analysis. Type of experiment: cell-based. For orientation: In western blotting, separated proteins are transferred to a membrane and probed.

Experiment [2] deals with T1, Tubulin (Homo sapiens). In words: Induction of tubulin degradation in human HeLa cells measured after 24 hrs by immunoblot analysis. Type of experiment: cell-based. The conditions noted are these: dose <= 50.0 µM.
The next experiment has as its system MCF7. In words: cells. The conditions noted are these: Homo sapiens, MCF7, 72 h.
A further experiment deals with HeLa. In words: Antiproliferative activity against human HeLa cells assessed as reduction in cell viability measured after 72 hrs. Format: functional, cell-based.
The subject of a further experiment is A2780S. In words: Antitumor activity against human A2780S cells xenografted in mouse model assessed as tumor growth inhibition at 30 mg/kg, ip administered every two days for 12 days relative to control. The conditions noted are these: 288 h, time 12 day, read-out: TGI. Type of experiment: functional. (In xenograft studies the graft and the host belong to different species.)

Experiment [3] concerns A2780/Taxol. In words: Antitumor activity against human A2780T cells xenografted in mouse model assessed as tumor growth inhibition at 30 mg/kg, ip administered every two days for 18 days relative to control. The conditions noted are these: 432 h, time 18 day, read-out: TGI. Type of experiment: functional.
For the next experiment, the system named is A549/TR. The experiment is described as follows: Antiproliferative activity against paclitaxel resistant human A549T cells assessed as reduction in cell viability measured after 72 hrs. Format: functional, cell-based.
Experiment [4] deals with A2780/Taxol. The experiment is described as follows: Antiproliferative activity against human A2780T cells assessed as reduction in cell viability measured after 72 hrs. Format: functional, cell-based.
A further experiment relates to NCI/ADR-RES. In words: Antiproliferative activity against human MCF7ADR cells assessed as reduction in cell viability measured after 72 hrs. Format: functional, cell-based.

Description for HCT-116: Antiproliferative activity against human HCT-116 cells assessed as reduction in cell viability measured after 72 hrs
Description for MCF7: Antiproliferative activity against human MCF7 cells assessed as reduction in cell viability measured after 72 hrs

The IC50 is the concentration that gives 50% inhibition. Consider `COc1cccc(-c2cc(N)nc(NCc3ccc4c(c3)OCO4)c2)c1`, for which the IC50 in the experiment on K562 came out at 19300 nM; with MOLM-13 it was 20200 nM; in the experiment on HCT-116, 37500 nM; in the experiment on MCF7 it was 26500 nM; with HeLa it was 48600 nM. The result at Tubulin (Homo sapiens) [1] and on Tubulin (Homo sapiens) [2] was inactive.

Take `COc1cccc(-c2cc(NCc3ccccc3)nc(N)n2)c1`: the IC50 with K562 was 270 nM; in the experiment on MOLM-13 it was 360 nM; in the experiment with HCT-116, 920 nM; in the experiment with MCF7, 850 nM; in the experiment with HeLa it was 440 nM. The Activity result on Tubulin (Homo sapiens) [2] was “Dose-Dependent Effect”.

With `CC(=O)O[C@H]1C(=O)[C@@]2(C)[C@H]([C@H](OC(=O)c3ccccc3)[C@]3(O)C[C@H](OC(=O)[C@H](O)[C@@H](NC(=O)c4ccccc4)c4ccccc4)C(C)=C1C3(C)C)[C@]1(OC(C)=O)CO[C@@H]1C[C@@H]2O` [PACLITAXEL], the inhibition in vivo at 30 mg/kg with A2780S worked out at 74.6%; in the experiment on A2780/Taxol [3] it was 23.2%. Moreover, the IC50 in the experiment with K562 is 15 nM; with MOLM-13, 4 nM; in the experiment on A549/TR it was 834 nM; with MCF7, 31.5 nM; in the experiment on A2780/Taxol [4], 55900 nM.

For the compound `COc1cccc(-c2cc(NCc3ccc4c(c3)OCO4)ncn2)c1`, the IC50 with K562 stood at 8630 nM; in the experiment with MOLM-13, 12500 nM; with HCT-116, 15800 nM; in the experiment with MCF7 it was 22800 nM; in the experiment with HeLa, 30800 nM. The result on Tubulin (Homo sapiens) [1] was Active. The Activity result on Tubulin (Homo sapiens) [2] is “Dose-Dependent Effect”.

With `COc1cccc2c1C(=O)c1c(O)c3c(c(O)c1C2=O)C[C@@](O)(C(=O)CO)C[C@@H]3O[C@H]1C[C@H](N)[C@H](O)[C@H](C)O1` [DOXORUBICIN HYDROCHLORIDE], the IC50 in the experiment on NCI/ADR-RES was found to be 8630 nM.

Regarding `CCN(Cc1ccc2c(c1)OCO2)c1cc(-c2cccc(OC)c2)nc(N)n1`, the IC50 was found to be 40 nM in the experiment on K562; 30 nM in the experiment on MOLM-13; 60 nM in the experiment on HCT-116; 60 nM with MCF7; 20 nM in the experiment on HeLa. On Tubulin (Homo sapiens) [2], the Activity entry was “Dose-Dependent Effect”.

For `COc1cccc(-c2cc(NCc3cccc(F)c3)nc(N)n2)c1`, the 50% inhibitory concentration (IC50) in the experiment on K562 was determined as 320 nM; with MOLM-13, 120 nM; with HCT-116 it was 160 nM; with MCF7 it was 360 nM; in the experiment with HeLa it was 440 nM.

Take `Nc1nc(NCc2ccc3c(c2)OCO3)cc(-c2ccoc2)n1`: the IC50 with K562 was 280 nM; in the experiment on MOLM-13, 560 nM; in the experiment with HCT-116, 1010 nM; in the experiment with MCF7 it was above 2000 nM; with HeLa, 910 nM.

Turning to `Nc1nc(NCc2ccc3c(c2)OCO3)cc(-c2ccccc2)n1`, the IC50 with K562 was found to be 140 nM; in the experiment with MOLM-13, 250 nM; in the experiment on HCT-116, 910 nM; with MCF7, 1910 nM; in the experiment on HeLa, 460 nM. Also, the Activity entry on Tubulin (Homo sapiens) [2] is “Dose-Dependent Effect”.
